Assay results taken from article PMC5572662 (ChemMedChem, 2017).
“Also recorded” adds a separate entry of the source. Square brackets hold non-standard residues; d marks the D form. Peptide text beside a SMILES is read from it. * marks the point of attachment. NH(4-amidinobenzyl) = N=C(N)c1ccc(CN*)cc1; Tle = CC(C)(C)[C@H](N)C(=O)O; PhAc = O=C(Cc1ccccc1)*

Assays:
[1] = biological target: recombinant soluble human furin (Homo sapiens, UniProt P09958); assay: Enzyme kinetic measurements with recombinant soluble human furin; type: biochemical; settings: for fold improved Ki (inhibition constant) versus parent analogue: 20 versus 18 (P3 Val to Tle), 21 and 22 versus the P2 Lys analogues; for Ki: Furin Ki, as given in the text in nM
anthrax toxin = settings: living rodents ref 8; cited from earlier work
[2] = system: Pseudomonas aeruginosa exotoxin A; settings: living rodents ref 8; cited from earlier work
[3] = system: chikungunya virus (CHIKV); assay: Chikungunya virus replication in BHK-21 cells, titers by plaque assay; type: cell-based; settings: 25 μM inhibitor, MOI 0.1, plaque assay 24 h post-infection
[4] = system: Semliki Forest virus (SFV); assay: Semliki Forest virus replication in BHK-21 cells, titers by plaque assay; type: cell-based; settings: for reduction of SFV virus titer: 25 μM inhibitor, MOI 0.01, plaque assay 24 h post-infection
E3-E2 (p62) cleavage = assay: Western blot of E3-E2; type: cell-based, Semliki Forest virus; settings: 25 μM inhibitor, BHK-21 cells, SFV MOI 10, 8 h post-infection

Sequence of recombinant soluble human furin (P09958 108-715 limits assumed): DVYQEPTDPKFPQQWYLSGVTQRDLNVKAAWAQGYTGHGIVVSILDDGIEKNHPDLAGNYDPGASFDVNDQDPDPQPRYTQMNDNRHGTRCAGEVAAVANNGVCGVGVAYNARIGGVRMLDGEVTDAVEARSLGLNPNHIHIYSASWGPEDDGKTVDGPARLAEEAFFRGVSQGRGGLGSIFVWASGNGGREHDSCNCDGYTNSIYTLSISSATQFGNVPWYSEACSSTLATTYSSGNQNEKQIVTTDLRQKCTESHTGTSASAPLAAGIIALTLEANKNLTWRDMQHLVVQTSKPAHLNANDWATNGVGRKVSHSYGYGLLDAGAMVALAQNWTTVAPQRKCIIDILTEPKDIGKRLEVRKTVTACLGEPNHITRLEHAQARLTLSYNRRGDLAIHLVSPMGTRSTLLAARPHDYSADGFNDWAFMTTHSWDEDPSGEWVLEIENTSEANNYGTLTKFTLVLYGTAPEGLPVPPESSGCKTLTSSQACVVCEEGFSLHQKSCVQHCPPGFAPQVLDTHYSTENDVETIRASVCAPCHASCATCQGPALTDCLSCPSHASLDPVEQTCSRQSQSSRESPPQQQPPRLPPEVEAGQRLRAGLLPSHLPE

CC(=O)N[C@@H](CC(C)C)C(=O)N[C@@H](CC(C)C)C(=O)N[C@@H](CC(C)C)C(=O)N[C@@H](CC(C)C)C(=O)N[C@@H](CCCNC(=N)N)C(=O)N[C@H](C(=O)N[C@@H](CCCCN)C(=O)NCc1ccc(C(=N)N)cc1)C(C)(C)C [Compound 20, Ac-Leu-Leu-Leu-Leu-Arg-Tle-Lys-4-Amba] (Ac-LLLLR[Tle]K-{NH(4-amidinobenzyl)})
fold improved Ki (inhibition constant) versus parent analogue [1]: 2.5 fold

CC(=O)N[C@@H](CC(C)C)C(=O)N[C@@H](CC(C)C)C(=O)N[C@@H](CC(C)C)C(=O)N[C@@H](CC(C)C)C(=O)N[C@@H](CCCN=C(N)N)C(=O)N[C@H](C(=O)N[C@@H](CCCCN)C(=O)NCc1ccc(C(=N)N)cc1)C(C)C [Compound 18, Ac-Leu-Leu-Leu-Leu-Arg-Val-Lys-4-Amba, reference compound] (Ac-LLLLRVK-{NH(4-amidinobenzyl)})
Ki [1]: ~0.5 nM

CC(C)[C@H](NC(=O)Cc1cccc(CN)c1)C(=O)N[C@@H](CCCNC(=N)N)C(=O)NCc1ccc(C(=N)N)cc1 [Compound 23, 3-AMe-Phac-Val-Arg-4-Amba]
Ki [1]: 48.2 nM

CC(C)[C@H](NC(=O)Cc1ccc(CN)cc1)C(=O)N[C@@H](CCCNC(=N)N)C(=O)NCc1ccc(C(=N)N)cc1 [Compound 24, 4-AMe-Phac-Val-Arg-4-Amba]
Ki [1]: 37.8 nM

CC(=O)N[C@H](CC(C)C)C(=O)N[C@@H](CC(C)C)C(=O)N[C@@H](CC(C)C)C(=O)N[C@@H](CC(C)C)C(=O)N[C@@H](CCCNC(=N)N)C(=O)N[C@H](C(=O)N[C@@H](CCCCN)C(=O)NCc1ccc(C(=N)N)cc1)C(C)C [Compound 19, Ac-DLeu-Leu-Leu-Leu-Arg-Val-Lys-4-Amba, reference compound] (Ac-[dL]LLLRVK-{NH(4-amidinobenzyl)})
Ki [1]: ~0.5 nM

hexa-D-arginine
protective effect against anthrax toxin (anthrax toxin): protective effect | protective effect against Pseudomonas aeruginosa exotoxin A [2]: protective effect

CC(C)[C@H](NC(=O)[C@H](CCCNC(=N)N)NC(=O)[C@H](CCCNC(=N)N)NC(=O)[C@H](N)CCCNC(=N)N)C(=O)N[C@@H](CCCNC(=N)N)C(=O)NCc1ccc(C(=N)N)cc1 [Compound 9, H-DArg-Arg-Arg-Val-Arg-4-Amba] (H-[dR]RRVR-{NH(4-amidinobenzyl)})
reduction of CHIKV virus titer [3]: strongly reduced titers | reduction of SFV virus titer [4]: less than one order of magnitude; also recorded: strongly reduced titers | concentration dependence of inhibition of SFV replication ([4]; MOI 0.01, 24 h post-infection (Figure 4)): concentration-dependent inhibition of SFV replication | inhibition of E3-E2 (p62) cleavage (E3-E2 (p62) cleavage): Inhibition of E3-E2 (p62) cleavage

CC(C)[C@H](NC(=O)[C@H](CCCNC(=N)N)NC(=O)[C@H](CCCNC(=N)N)NC(=O)[C@H](CCCNC(=N)N)NC(=O)Cc1ccccc1)C(=O)N[C@@H](CCCNC(=N)N)C(=O)NCc1ccc(C(=N)N)cc1 [Compound 5, Phac-Arg-Arg-Arg-Val-Arg-4-Amba] (PhAc-RRRVR-{NH(4-amidinobenzyl)})
reduction of SFV virus titer [4]: less than one order of magnitude

CC(=O)N[C@@H](CC(C)C)C(=O)N[C@@H](CC(C)C)C(=O)N[C@@H](CC(C)C)C(=O)N[C@@H](CC(C)C)C(=O)N[C@@H](CCCNC(=N)N)C(=O)N[C@H](C(=O)N[C@@H](CCCNC(=N)N)C(=O)NCc1ccc(C(=N)N)cc1)C(C)C [Compound 21, Ac-Leu-Leu-Leu-Leu-Arg-Val-Arg-4-Amba] (Ac-LLLLRVR-{NH(4-amidinobenzyl)})
fold improved Ki (inhibition constant) versus parent analogue [1]: ~ 2 fold

CC(=O)N[C@@H](CC(C)C)C(=O)N[C@@H](CC(C)C)C(=O)N[C@@H](CC(C)C)C(=O)N[C@@H](CC(C)C)C(=O)N[C@@H](CCCNC(=N)N)C(=O)N[C@H](C(=O)N[C@@H](CCCNC(=N)N)C(=O)NCc1ccc(C(=N)N)cc1)C(C)(C)C [Compound 22, Ac-Leu-Leu-Leu-Leu-Arg-Tle-Arg-4-Amba] (Ac-LLLLR[Tle]R-{NH(4-amidinobenzyl)})
fold improved Ki (inhibition constant) versus parent analogue [1]: ~ 2 fold
